Publication PMC8766756, “Insights on Cancer Cell Inhibition, Subcellular Activities, and Kinase Profile of Phenylacetamides Pending 1H-Imidazol-5-One Variants” (Frontiers in Pharmacology, 2022)
Values joined by “and” are separate entries in the source; they are usually repeats but may differ in a detail not shown here. Equal values may be shown once.

How the values were obtained:
Assay in all cases: PamChip tyrosine kinase microarray
Assay type in all cases: biochemical
Settings in all cases: 0.1 µM, HL60 lysate
ALK (Q9UM73) = target: T1, ALK (Q9UM73) (Homo sapiens, UniProt Q9UM73)
T1 construct: purchased PamGene (PamChip PTK array, Upstream Kinase Analysis)
Summary of the method: (§1)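 HL60 (AML) cell lysate was spiked with compound at 0.001, 0.01, 0.1, 1, 10 and 50 µM, or 2% v/v DMSO as control, then profiled in technical replicates on a tyrosine kinase peptide array of 196 phosphosites. Kinase activity was inferred from peptide-set changes using an upstream kinase tool.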

Brk (Q13882) = target: T2, Brk (Q13882) (Homo sapiens, UniProt Q13882)
T2 construct: purchased PamGene (PamChip PTK array, Upstream Kinase Analysis)
Summary of the method: as §1

DDR1 (Q08345) = target: T3, DDR1 (Q08345) (Homo sapiens, UniProt Q08345)
T3 construct: purchased PamGene (PamChip PTK array, Upstream Kinase Analysis)
Summary of the method: as §1

EphA4 (P54764) = target: T4, EphA4 (P54764) (Homo sapiens, UniProt P54764)
T4 construct: purchased PamGene (PamChip PTK array, Upstream Kinase Analysis)
Summary of the method: as §1

EphA5 (P54756) = target: T5, EphA5 (P54756) (Homo sapiens, UniProt P54756)
T5 construct: purchased PamGene (PamChip PTK array, Upstream Kinase Analysis)
Summary of the method: as §1

FLT4 (P35916) = target: T6, FLT4 (P35916) (Homo sapiens, UniProt P35916)
T6 construct: purchased PamGene (PamChip PTK array, Upstream Kinase Analysis)
Summary of the method: as §1

Fgr (P09769) = target: T7, Fgr (P09769) (Homo sapiens, UniProt P09769)
T7 construct: purchased PamGene (PamChip PTK array, Upstream Kinase Analysis)
Summary of the method: as §1

HCK (P08631) = target: T8, HCK (P08631) (Homo sapiens, UniProt P08631)
T8 construct: purchased PamGene (PamChip PTK array, Upstream Kinase Analysis)
Summary of the method: as §1

HER3 (P21860) = target: T9, HER3 (P21860) (Homo sapiens, UniProt P21860)
T9 construct: purchased PamGene (PamChip PTK array, Upstream Kinase Analysis)
Summary of the method: as §1

IGF1R (P08069) = target: T10, IGF1R (P08069) (Homo sapiens, UniProt P08069)
T10 construct: purchased PamGene (PamChip PTK array, Upstream Kinase Analysis)
Summary of the method: as §1

IRR (P14616) = target: T11, IRR (P14616) (Homo sapiens, UniProt P14616)
T11 construct: purchased PamGene (PamChip PTK array, Upstream Kinase Analysis)
Summary of the method: as §1

InSR (P06213) = target: T12, InSR (P06213) (Homo sapiens, UniProt P06213)
T12 construct: purchased PamGene (PamChip PTK array, Upstream Kinase Analysis)
Summary of the method: as §1

JAK2 (O60674) = target: T13, JAK2 (O60674) (Homo sapiens, UniProt O60674)
T13 construct: purchased PamGene (PamChip PTK array, Upstream Kinase Analysis)
Summary of the method: as §1

Lck (P06239) = target: T14, Lck (P06239) (Homo sapiens, UniProt P06239)
T14 construct: purchased PamGene (PamChip PTK array, Upstream Kinase Analysis)
Summary of the method: as §1

PDGFR[alpha] (P16234) = target: T15, PDGFR[alpha] (P16234) (Homo sapiens, UniProt P16234)
T15 construct: purchased PamGene (PamChip PTK array, Upstream Kinase Analysis)
Summary of the method: as §1

Tyk2 (P29597) = target: T16, Tyk2 (P29597) (Homo sapiens, UniProt P29597)
T16 construct: purchased PamGene (PamChip PTK array, Upstream Kinase Analysis)
Summary of the method: as §1

T10 sequence (P08069 31-1367): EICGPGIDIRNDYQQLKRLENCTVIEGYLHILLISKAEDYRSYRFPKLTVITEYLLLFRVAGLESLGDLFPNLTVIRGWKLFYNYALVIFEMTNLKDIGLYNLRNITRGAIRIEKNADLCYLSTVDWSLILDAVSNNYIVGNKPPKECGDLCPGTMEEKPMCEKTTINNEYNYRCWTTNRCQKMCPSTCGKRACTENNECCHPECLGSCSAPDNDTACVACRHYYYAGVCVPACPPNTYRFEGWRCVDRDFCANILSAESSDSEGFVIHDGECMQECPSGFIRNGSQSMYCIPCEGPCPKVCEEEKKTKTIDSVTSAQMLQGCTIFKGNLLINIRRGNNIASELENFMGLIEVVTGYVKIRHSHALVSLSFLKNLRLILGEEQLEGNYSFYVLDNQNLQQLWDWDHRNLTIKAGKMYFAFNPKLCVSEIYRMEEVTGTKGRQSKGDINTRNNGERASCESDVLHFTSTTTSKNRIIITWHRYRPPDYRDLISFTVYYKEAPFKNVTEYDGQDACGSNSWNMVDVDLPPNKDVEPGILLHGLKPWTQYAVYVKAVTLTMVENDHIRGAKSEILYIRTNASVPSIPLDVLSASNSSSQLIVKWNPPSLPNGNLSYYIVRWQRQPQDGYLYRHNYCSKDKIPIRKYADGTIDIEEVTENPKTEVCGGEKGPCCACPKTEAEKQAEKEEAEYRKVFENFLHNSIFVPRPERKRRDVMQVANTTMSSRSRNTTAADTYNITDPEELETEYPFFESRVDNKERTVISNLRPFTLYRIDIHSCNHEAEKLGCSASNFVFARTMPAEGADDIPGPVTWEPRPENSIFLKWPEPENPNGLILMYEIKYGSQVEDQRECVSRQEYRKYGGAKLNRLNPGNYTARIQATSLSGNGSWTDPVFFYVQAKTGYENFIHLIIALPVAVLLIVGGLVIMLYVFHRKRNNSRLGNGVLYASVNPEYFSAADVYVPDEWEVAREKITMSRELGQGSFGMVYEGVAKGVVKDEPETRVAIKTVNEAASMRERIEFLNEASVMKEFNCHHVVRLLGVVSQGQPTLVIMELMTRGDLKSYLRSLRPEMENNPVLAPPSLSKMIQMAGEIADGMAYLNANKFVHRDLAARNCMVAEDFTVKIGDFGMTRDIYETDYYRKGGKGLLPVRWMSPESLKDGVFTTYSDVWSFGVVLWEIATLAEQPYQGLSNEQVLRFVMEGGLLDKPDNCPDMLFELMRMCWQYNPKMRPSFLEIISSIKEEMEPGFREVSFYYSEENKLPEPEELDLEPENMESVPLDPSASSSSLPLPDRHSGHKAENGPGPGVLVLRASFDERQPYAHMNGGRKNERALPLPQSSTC
T15 sequence (P16234 24-1089): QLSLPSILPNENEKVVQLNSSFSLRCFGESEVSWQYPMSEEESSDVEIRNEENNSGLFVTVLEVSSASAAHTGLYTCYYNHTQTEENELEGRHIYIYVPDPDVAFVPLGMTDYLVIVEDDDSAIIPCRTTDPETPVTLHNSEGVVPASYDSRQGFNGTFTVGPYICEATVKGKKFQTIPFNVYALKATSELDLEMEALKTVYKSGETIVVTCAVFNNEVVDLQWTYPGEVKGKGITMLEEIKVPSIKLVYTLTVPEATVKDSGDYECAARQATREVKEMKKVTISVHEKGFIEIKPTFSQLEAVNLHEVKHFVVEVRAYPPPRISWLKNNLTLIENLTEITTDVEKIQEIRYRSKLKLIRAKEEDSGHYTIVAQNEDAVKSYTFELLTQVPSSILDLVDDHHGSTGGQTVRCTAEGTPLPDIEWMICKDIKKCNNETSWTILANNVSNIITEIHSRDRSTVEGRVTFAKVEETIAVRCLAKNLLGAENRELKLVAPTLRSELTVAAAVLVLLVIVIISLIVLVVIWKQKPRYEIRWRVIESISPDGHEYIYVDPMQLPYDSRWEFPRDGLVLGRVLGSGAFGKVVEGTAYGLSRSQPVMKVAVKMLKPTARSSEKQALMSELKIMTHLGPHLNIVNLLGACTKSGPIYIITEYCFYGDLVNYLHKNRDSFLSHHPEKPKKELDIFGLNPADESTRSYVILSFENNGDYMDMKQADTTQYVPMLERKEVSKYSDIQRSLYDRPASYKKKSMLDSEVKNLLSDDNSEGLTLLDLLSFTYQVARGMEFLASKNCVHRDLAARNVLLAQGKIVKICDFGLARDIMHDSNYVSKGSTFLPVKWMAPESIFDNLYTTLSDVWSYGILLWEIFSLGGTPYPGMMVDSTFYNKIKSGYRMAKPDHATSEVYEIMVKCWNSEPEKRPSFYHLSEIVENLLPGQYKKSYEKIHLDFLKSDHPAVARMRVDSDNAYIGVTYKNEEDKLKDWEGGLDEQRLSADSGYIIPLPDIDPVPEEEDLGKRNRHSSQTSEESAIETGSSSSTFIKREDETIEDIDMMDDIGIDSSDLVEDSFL
T14 sequence (P06239 whole entry): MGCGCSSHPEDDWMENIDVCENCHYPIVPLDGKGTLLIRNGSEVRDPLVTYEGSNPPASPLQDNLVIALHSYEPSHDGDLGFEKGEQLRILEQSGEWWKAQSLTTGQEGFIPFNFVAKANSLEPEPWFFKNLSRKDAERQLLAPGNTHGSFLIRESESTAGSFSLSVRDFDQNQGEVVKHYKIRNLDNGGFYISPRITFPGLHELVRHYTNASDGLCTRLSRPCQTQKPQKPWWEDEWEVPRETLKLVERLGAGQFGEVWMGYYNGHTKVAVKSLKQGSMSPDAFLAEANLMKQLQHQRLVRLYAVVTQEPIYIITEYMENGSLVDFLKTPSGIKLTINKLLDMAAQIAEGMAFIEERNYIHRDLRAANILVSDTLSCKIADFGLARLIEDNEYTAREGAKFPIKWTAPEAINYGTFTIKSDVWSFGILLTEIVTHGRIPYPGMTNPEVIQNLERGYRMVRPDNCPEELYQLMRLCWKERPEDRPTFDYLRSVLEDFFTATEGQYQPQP
T13 sequence (O60674 whole entry): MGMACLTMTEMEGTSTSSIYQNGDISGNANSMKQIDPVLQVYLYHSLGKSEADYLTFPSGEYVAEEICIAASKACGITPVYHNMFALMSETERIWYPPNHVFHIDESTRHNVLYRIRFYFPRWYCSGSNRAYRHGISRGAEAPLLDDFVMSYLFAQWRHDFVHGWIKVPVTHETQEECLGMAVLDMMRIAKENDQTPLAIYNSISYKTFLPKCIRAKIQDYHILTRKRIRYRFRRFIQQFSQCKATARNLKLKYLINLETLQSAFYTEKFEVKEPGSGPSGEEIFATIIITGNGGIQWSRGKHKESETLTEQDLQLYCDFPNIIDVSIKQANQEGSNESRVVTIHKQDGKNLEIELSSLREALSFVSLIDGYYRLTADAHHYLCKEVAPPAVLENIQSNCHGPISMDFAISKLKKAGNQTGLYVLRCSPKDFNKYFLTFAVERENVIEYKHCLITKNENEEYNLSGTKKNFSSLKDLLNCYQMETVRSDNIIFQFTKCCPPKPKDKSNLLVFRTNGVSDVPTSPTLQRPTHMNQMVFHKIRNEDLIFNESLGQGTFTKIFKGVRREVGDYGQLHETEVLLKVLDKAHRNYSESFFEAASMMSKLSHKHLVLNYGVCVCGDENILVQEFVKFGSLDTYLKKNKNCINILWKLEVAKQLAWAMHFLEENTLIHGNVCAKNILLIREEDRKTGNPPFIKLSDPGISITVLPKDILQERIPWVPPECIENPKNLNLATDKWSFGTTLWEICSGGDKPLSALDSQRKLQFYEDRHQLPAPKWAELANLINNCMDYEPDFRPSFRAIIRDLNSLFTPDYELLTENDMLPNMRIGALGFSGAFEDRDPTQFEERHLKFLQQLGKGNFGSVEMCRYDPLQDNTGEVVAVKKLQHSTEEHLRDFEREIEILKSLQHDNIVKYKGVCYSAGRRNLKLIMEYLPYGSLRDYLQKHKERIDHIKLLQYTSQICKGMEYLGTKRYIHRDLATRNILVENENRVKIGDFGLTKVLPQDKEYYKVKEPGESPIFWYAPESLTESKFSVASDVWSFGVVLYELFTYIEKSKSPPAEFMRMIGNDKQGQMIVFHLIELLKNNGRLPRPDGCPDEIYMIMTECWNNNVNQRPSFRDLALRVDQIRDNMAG
T2 sequence (Q13882 whole entry): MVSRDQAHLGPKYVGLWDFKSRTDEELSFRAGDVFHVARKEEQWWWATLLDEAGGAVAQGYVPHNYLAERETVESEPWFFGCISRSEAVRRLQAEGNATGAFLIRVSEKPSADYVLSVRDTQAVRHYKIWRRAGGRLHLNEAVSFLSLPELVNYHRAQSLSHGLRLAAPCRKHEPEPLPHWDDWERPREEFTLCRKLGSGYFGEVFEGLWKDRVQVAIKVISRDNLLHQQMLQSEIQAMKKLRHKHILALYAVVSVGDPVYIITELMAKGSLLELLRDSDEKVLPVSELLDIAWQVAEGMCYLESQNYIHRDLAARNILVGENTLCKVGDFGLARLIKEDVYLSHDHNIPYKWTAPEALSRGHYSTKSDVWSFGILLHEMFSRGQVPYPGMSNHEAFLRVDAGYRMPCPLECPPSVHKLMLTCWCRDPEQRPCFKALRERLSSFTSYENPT
T8 sequence (P08631 whole entry): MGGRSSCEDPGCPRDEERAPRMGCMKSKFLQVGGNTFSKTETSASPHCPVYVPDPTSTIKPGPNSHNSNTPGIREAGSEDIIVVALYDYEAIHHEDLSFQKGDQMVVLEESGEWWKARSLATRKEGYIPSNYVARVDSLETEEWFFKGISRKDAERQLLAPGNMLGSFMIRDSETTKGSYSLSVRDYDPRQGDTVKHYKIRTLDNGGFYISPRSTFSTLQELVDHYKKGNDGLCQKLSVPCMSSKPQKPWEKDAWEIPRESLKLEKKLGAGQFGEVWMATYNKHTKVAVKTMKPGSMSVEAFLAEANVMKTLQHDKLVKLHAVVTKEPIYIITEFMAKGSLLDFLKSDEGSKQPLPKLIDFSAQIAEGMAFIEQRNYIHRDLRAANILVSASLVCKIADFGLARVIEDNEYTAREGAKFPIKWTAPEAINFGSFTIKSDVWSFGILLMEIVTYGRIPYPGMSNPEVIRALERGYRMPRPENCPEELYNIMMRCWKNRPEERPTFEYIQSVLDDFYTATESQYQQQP

**Q.** What does the source list for `COc1ccc(/C=C2\N=C(C)N(c3ccc(CC(=O)NCc4ccccc4)cc3)C2=O)cc1` [Compound 4c, (Z)-N-Benzyl-2-(4-(4-(4-methoxybenzylidene)-2-methyl-5-oxo-4,5-dihydro-1H-imidazol-1-yl)phenyl)acetamide]?
**A.** Mean Final score (Kinase score) (ALK (Q9UM73)): 2.186; Mean Kinase Statistic (ALK (Q9UM73)): -1.125; Mean Significance Score (ALK (Q9UM73)): 2.048; Mean Specificity Score (ALK (Q9UM73)): 0.1497; Mean Final score (Kinase score) (Brk (Q13882)): 2.481; Mean Kinase Statistic (Brk (Q13882)): -1.21; Mean Significance Score (Brk (Q13882)): 2.048; Mean Specificity Score (Brk (Q13882)): 0.446; Mean Final score (Kinase score) (DDR1 (Q08345)): 2.262; Mean Kinase Statistic (DDR1 (Q08345)): -1.216; Mean Significance Score (DDR1 (Q08345)): 1.955; Mean Specificity Score (DDR1 (Q08345)): 0.3662; Mean Final score (Kinase score) (EphA4 (P54764)): 1.356; Mean Kinase Statistic (EphA4 (P54764)): -0.7819; Mean Significance Score (EphA4 (P54764)): 1.252; Mean Specificity Score (EphA4 (P54764)): 0.07789; Mean Final score (Kinase score) (EphA5 (P54756)): 2.0125; Mean Kinase Statistic (EphA5 (P54756)): -1.181; Mean Significance Score (EphA5 (P54756)): 1.675; Mean Specificity Score (EphA5 (P54756)): 0.3238; Mean Significance Score (FLT4 (P35916)): 2.048; Mean Specificity Score (FLT4 (P35916)): 1.142; Mean Final score (Kinase score) (FLT4 (P35916); listed as KIM-161): 3.15 and 3.152; Mean Final score (Kinase score) (Fgr (P09769)): 2.293; Mean Kinase Statistic (Fgr (P09769)): -1.161; Mean Significance Score (Fgr (P09769)): 1.8658; Mean Specificity Score (Fgr (P09769)): 0.2752; Mean Final score (Kinase score) (HCK (P08631)): 1.871; Mean Kinase Statistic (HCK (P08631)): -1.0936; Mean Significance Score (HCK (P08631)): 1.7269; Mean Specificity Score (HCK (P08631)): 0.1451; Mean Final score (Kinase score) (HER3 (P21860)): 2.412; Mean Kinase Statistic (HER3 (P21860)): -1.214; Mean Significance Score (HER3 (P21860)): 2.014; Mean Specificity Score (HER3 (P21860)): 0.4279; Mean Final score (Kinase score) (IGF1R (P08069)): 2.173; Mean Kinase Statistic (IGF1R (P08069)): -1.034; Mean Significance Score (IGF1R (P08069)): 2.048; Mean Specificity Score (IGF1R (P08069)): 0.1033; Mean Final score (Kinase score) (IRR (P14616)): 2.412; Mean Kinase Statistic (IRR (P14616)): -1.1771; Mean Significance Score (IRR (P14616)): 2.053; Mean Specificity Score (IRR (P14616)): 0.3184; Mean Final score (Kinase score) (InSR (P06213)): 2.117; Mean Kinase Statistic (InSR (P06213)): -0.9506; Mean Significance Score (InSR (P06213)): 2.048; Mean Specificity Score (InSR (P06213)): 0.02144; Mean Significance Score (JAK2 (O60674)): 2.048; Mean Specificity Score (JAK2 (O60674)): 1.216; Mean Final score (Kinase score) (JAK2 (O60674); listed as KIM-161): 3.19 and 3.191; Mean Kinase Statistic (JAK2 (O60674); listed as KIM-161): −1.43; Mean Significance Score (Lck (P06239)): 2.048; Mean Specificity Score (Lck (P06239)): 0.6669; Mean Final score (Kinase score) (Lck (P06239); listed as KIM-161): 2.76 and 2.758; Mean Final score (Kinase score) (PDGFR[alpha] (P16234)): 1.95; Mean Kinase Statistic (PDGFR[alpha] (P16234)): -1.208; Mean Significance Score (PDGFR[alpha] (P16234)): 1.701; Mean Specificity Score (PDGFR[alpha] (P16234)): 0.3388; Mean Final score (Kinase score) (Tyk2 (P29597)): 2.4437; Mean Kinase Statistic (Tyk2 (P29597)): -1.248; Mean Significance Score (Tyk2 (P29597)): 2.048; Mean Specificity Score (Tyk2 (P29597)): 0.3814
